Experimental data published in patent publication US20210244713A1, “ANHYDROUS COMPOSITIONS OF mTOR INHIBITORS AND METHODS OF USE” (PALVELLA THERAPEUTICS, INC., priority 2018, published 2021).

Assays:
[1] = Ex vivo skin permeation experiment; format: in vitro ADME, Human
Experimental: Human donor skin was placed between upper and lower compartments. The lower compartment was filled with receiver fluid. Various rapamycin compositions were applied on the surface of the skin facing the upper compartment (11 formulations (i.e., O3, NA21, NA22, NA21, NA17, TD201, NA19, NA25, AG14, NA26 and NA24), n=6 replicates, dosage 10 mg/cm^2) and left for 24 hrs. A positive displacement pipette was used to apply the formulation (˜10 mg/cm^2) to the plunger of a 1 mL syringe. The formulation (10+/−0.5 mg) was applied to the skin surface and spread over the diffusion area using the plunger. Prior to and after the application the weight of the plunger was recorded, from which the dose per cell was calculated.
Following the time period, the excess rapamycin compositions were wiped from the skin surface and the skin layers were separated into stratum corneum, epidermis, and dermis. The Stratum corneum was removed from the human skin using a tape stripping procedure. The epidermis was separated from the dermis by dry heating at 60° C. for 2 min. Rapamycin was extracted from each layer by 90:10 v/v ethanol:water solvent mixture, and quantified. The receiver fluid in the lower compartment was also analyzed for the presence of rapamycin.

[2] = Solubility of rapamycin in solvents and solvent combination

**Q.** Which results are given for `CO[C@H]1C[C@@H]2CC[C@@H](C)[C@@](O)(O2)C(=O)C(=O)N2CCCC[C@H]2C(=O)O[C@H]([C@H](C)C[C@@H]2CC[C@@H](O)[C@H](OC)C2)CC(=O)[C@H](C)/C=C(\C)[C@@H](O)[C@@H](OC)C(=O)[C@H](C)C[C@H](C)/C=C/C=C/C=C/1C` [Rapamycin, rapamycin (sirolimus)]?
**A.** amount of rapamycin found on the surface of the skin ([1]; after 24 hours, relative to skin layers): greatest amount; amount of rapamycin quantified in both the epidermis and dermis over time ([1]; ex vivo human skin): increase; drug residing in the epidermis versus stratum corneum or dermal layer ([1]; ex vivo human skin): more of the drug residing in the epidermis; rapamycin detected in the receiver fluid ([1]; ex vivo human skin, any of the time points across the experimental period): not detected; Solubility capacity of each excipient based on concentration in formulation ([2]; IPA at 15.00 wt %): 0.56 wt %; Solubility capacity of each excipient based on concentration in formulation ([2]; IPA at 15.00 wt %, listed as rapamycin): −0.56 wt %; Solubility capacity of each excipient based on concentration in formulation ([2]; PEG 400 at 60.00 wt %): 1.03 wt %; Solubility capacity of each excipient based on concentration in formulation ([2]; diisopropyl adipate (DIA) at 15.00 wt %): 0.26 wt %; Solubility capacity of each excipient based on concentration in formulation ([2]; glycerol at 10.00 wt %): 0.08 wt %; Solubility capacity of the solvent system (expected maximum, simple linear additive effect) ([2]; sum of the excipient capacities): 1.93 wt %
